Experimental data taken from patent US4399137A, “6-Imidazol-1-yl-3-hydrazino-pyridazines, their preparation and antihypertensive use” (BASF Aktiengesellschaft, priority 1979, dated 1983).
Like-named read-outs stand apart in the source and are kept apart here.

Experiments:
narcotized rats = test: Hypotensive action (blood pressure lowering) on narcotized rats, intravenous administration; type: in vivo, rat (Sprague Dawley); conditions: for ED20: Rattus norvegicus, dose producing a 20% lowering of blood pressure, read-out: Hypotensive action ED 20%; for ED20 / Hypotensive action R.E. (relative effectiveness) / factor by which blood pressure-lowering doses are lower than the dihydralazine doses: narcotized rats; for ED20 / Hypotensive action R.E. (relative effectiveness): intravenous; for Hypotensive action R.E. (relative effectiveness): dihydralazine = 1.00; for blood pressure-lowering properties (in words): general statement, no specific model named; for factor by which blood pressure-lowering doses are lower than the dihydralazine doses: relative to dihydralazine
Description: The blood pressure was measured in the […]. The substance was administered into the jugular vein (using 1 ml/kg of an aqueous solution). The ED 20% was determined, as the dose producing a 20% lowering of blood pressure, from the linear regression between the logarithm of the dose (mg/kg) and the relative lowering of the blood pressure (Δ%).

[1] = system: spontaneously hypertonic rats; test: Anti-hypertensive action on spontaneously hypertonic rats (SHR), oral administration; type: in vivo, rat (Okamoto; conditions: for ED20: Rattus norvegicus, dose which lowers systolic pressure by 20%, 2 hours after administration, read-out: Anti-hypertensive action ED 20%; for ED20 / Anti-hypertensive action R.E. (relative effectiveness): SHR, oral; for Anti-hypertensive action R.E. (relative effectiveness): dihydralazine = 1.00; for times as effective as dihydralazine: wake spontaneously hypertonic rats
Description: The anti-hypertensive action was determined on spontaneously hypertonic rats (Okamoto). The substances were administered orally to groups of from 4 to 8 male animals. Before, and 2 hours after, administration, the systolic blood pressure was measured on the tail of the rat by means of a piezoelectric crystal sensor. The ED 20 was determined, as the dose which lowers the systolic pressure by 20%, from the linear regression between the logarithm of the dose (mg/kg) and the relative lowering of blood pressure (Δ%), with due account taken of the values found with placebo-treated control animals.

[2] = Acute toxicity (LD 50), intraperitoneal administration; type: in vivo; conditions: mouse, in vivo; for LD50 at 168 h: ip, mice, intraperitoneal, 50% of the animals died within 7 days
Description: (§1) To determine the acute toxicity (LD 50), the substances were administered intraperitoneally to groups of 10 female NMRI mice (weighing 20-25 g each).
(§2) The LD 50 was computed (by Probit analysis) as the dose after which 50% of the animals died within 7 days.

mice = test: as above; type: in vivo; conditions: mice, intraperitoneal; dihydralazine = 1.00
Description: as §1, §2

[3] = ratio LD 50 / anti-hypertensive dose, read-out: toxic doses (LD 50) times as great as the anti-hypertensive doses
[4] = LD 50 (mice, i.p.) relative to anti-hypertensive ED 20% (SHR, oral), read-out: Therapeutic range Q

SMILES	ED20 (narcotized rats)	Hypotensive action R.E. (relative effectiveness) (narcotized rats)	ED20 [1]	Anti-hypertensive action R.E. (relative effectiveness) [1]	LD50 at 168 h [2]	selectivity ratio [2, 3]	selectivity ratio [2, 4]	Toxicity R.E. (mice)	blood pressure-lowering properties (in words) (narcotized rats)	factor by which blood pressure-lowering doses are lower than the dihydralazine doses (narcotized rats)	times as effective as dihydralazine [1]
NNc1nnc(NN)c2ccccc12 [Dihydralazine, dihydralazine, reference compound]	0.0854 mg/kg	1.00	6.85 mg/kg	1.00	206 mg/kg	30	30.1	1.00			
Cc1nccn1-c1ccc(NN)nn1 [Example 1 a, 3-Hydrazino-6-(2-methyl-imidazol-1-yl)-pyridazine]	0.031 mg/kg	2.75	1.41 mg/kg	4.86	193 mg/kg		137	1.06	Particularly active	2.8	4.9
CCc1nccn1-c1ccc(NN)nn1 [Example 1 c, 3-Hydrazino-6-(2-ethyl-imidazol-1-yl)-pyridazine]	0.0638 mg/kg	1.34	2.91 mg/kg	2.35	156 mg/kg		53.6	1.32	Particularly active	1.3	2.4
CC(C)=NNc1ccc(-n2ccnc2C)nn1 [Example 2 a, 3-(2-Isopropylidene-hydrazino)-6-(2-methyl-imidazol-1-yl)-pyridazine]	0.0464 mg/kg	1.84	2.46 mg/kg	2.78	98.6 mg/kg	40	40.1	2.09	Particularly active		
CCc1nccn1-c1ccc(NN=C(C)C)nn1 [Example 2 b, 3-(2-Isopropylidene-hydrazino)-6-(2-ethyl-imidazol-1-yl)-pyridazine]	0.0464 mg/kg	1.84	2.48 mg/kg	2.76	124 mg/kg		50.1	1.66	Particularly active		
